{
  "source": "patent USRE39138E1",
  "about": "“Monoclonal antibody specific for advanced glycosylation endproducts in biological samples” (Alteon Incorporated, priority 1994, dated 2006)",
  "key": {"[1]": {"tested_on": "Hb-AGE", "settings": "diabetic patients treated for 28 days; cited from earlier work"}, "[2]": {"tested_on": "mAb 4G9", "test": "competition ELISA: browned compounds compete with plate-bound BSA-AGE for mAb 4G9", "type": "binding, murine", "settings": "concentration based on the original proteins or peptides", "description": "Production of AGE proteins. All proteins and peptides were browned with glucose, ribose or glucose 6-phosphate in 300 mM sodium phosphate buffer, pH 7.4, for 8-12 weeks at 37° C. The control proteins were treated the same way except the sugars were omitted.\nThe competition ELISA was performed by pre-coating microtiter plates with BSA-AGE and blocking with Assay Buffer. The plates was washed and mAb 4G9 and increasing concentrations of the competitors listed in Table 1 were added and simultaneously incubated for 1 hr at 37° C. The unbound materials were removed by extensive washing and the bound mAb was detected with alkaline phosphatase labeled anti-mouse antibodies similar to direct ELISA. All washes were in TBS-T wash solution: all incubations proceeded for 1 hr at 37° C."}, "[3]": {"settings": "protein or peptide browned with ribose"}},
  "note": "pIC50: −log10 of the molar value.",
  "data": [
    {"molecule": "N=C(N)NN", "note": "[aminoguanidine]", "values": [
      {"measurement": "levels of Hb-AGE at the end of the treatment period", "setting": "[1]", "result": "significantly decreased"}
    ]},
    {"molecule": "Hemoglobin", "values": [
      {"measurement": "pIC50", "setting": "[2]; [3]", "result": 3.70}
    ]},
    {"molecule": "Arg-lys", "values": [
      {"measurement": "pIC50", "setting": "[2]; protein or peptide browned with glucose", "result": 3.60},
      {"measurement": "pIC50", "setting": "[2]; [3]", "result": 4.30}
    ]}
  ]
}
